Test results reported in patent US10954214B2 (Janssen Pharmaceutica NV, priority 2016, dated 2021).

What was measured:
[1] = molecular target: full-length MALT1 protein (Strep-MALT1(1-824)-His) (Homo sapiens (Human), UniProt Q9UDY8); assay: MALT1 Biochemical Protease Assay (Ac-LRSR-AMC substrate); conditions: 10 nM FL MALT1, 200 μM Ac-LRSR-AMC, 4 h at RT; read-out: MALT1_Biochemical activity (Ac-LRSR-amc) IC50
How it was run: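 Full-length MALT1 pre-incubated with compounds (30 μM to 0.5 nM, 11 threefold steps) for 50 min at RT. After Ac-LRSR-AMC was added, the reaction ran 4 h at RT and AMC fluorescence was read. IC50 and Hill slope from curve fitting against no-enzyme and no-compound controls.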

[2] = test system: IL6 secretion by OCI-LY3 ABC-DLBCL cells; assay: Human IL6 Mesoscale assay (OCI-LY3); assay type: cell-based; conditions: Homo sapiens, 24 h
How it was run: (§1)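 After 24 h at 37 °C with test compounds (15 μM down to 58.6 nM, 9 twofold steps, 0.3% DMSO), IL6 and IL10 secreted by 100,000 OCI-LY3 or TMD8 cells per well were measured in supernatants with a Mesoscale immunoassay. Data were scaled between DMSO wells (high) and RN486 treatment (low).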

[3] = test system: IL10 secretion by OCI-LY3 ABC-DLBCL cells; assay: Human IL10 Mesoscale assay (OCI-LY3); assay type: cell-based; conditions: Homo sapiens, 24 h
How it was run: as §1

[4] = test system: OCI-Ly3 cells; assay: 4-day proliferation assay, OCI-Ly3; assay type: cell-based, human; conditions: Homo sapiens, 96 h, 4 days incubation, CellTiterGLO, read-out: Anti-proliferation: OCI-LY-3 IC50
How it was run: (§2)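 TMD8 and OCI-Ly3 cells were seeded at 10,000 per well and grown 4 days at 37° C, 5% CO2 without beta-mercaptoethanol. Viability was read by CellTiter-Glo luminescence. IC50 and Hill slope were fitted relative to the low control median.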

[5] = test system: TMD8 cells; assay: 4-day proliferation assay, TMD8; assay type: cell-based; conditions: Homo sapiens, 96 h, 4 days incubation, CellTiterGLO, read-out: Anti-proliferation: TMD-8 IC50
How it was run: as §2

Sequence of full-length MALT1 protein (Strep-MALT1(1-824)-His) (Q9UDY8 whole entry): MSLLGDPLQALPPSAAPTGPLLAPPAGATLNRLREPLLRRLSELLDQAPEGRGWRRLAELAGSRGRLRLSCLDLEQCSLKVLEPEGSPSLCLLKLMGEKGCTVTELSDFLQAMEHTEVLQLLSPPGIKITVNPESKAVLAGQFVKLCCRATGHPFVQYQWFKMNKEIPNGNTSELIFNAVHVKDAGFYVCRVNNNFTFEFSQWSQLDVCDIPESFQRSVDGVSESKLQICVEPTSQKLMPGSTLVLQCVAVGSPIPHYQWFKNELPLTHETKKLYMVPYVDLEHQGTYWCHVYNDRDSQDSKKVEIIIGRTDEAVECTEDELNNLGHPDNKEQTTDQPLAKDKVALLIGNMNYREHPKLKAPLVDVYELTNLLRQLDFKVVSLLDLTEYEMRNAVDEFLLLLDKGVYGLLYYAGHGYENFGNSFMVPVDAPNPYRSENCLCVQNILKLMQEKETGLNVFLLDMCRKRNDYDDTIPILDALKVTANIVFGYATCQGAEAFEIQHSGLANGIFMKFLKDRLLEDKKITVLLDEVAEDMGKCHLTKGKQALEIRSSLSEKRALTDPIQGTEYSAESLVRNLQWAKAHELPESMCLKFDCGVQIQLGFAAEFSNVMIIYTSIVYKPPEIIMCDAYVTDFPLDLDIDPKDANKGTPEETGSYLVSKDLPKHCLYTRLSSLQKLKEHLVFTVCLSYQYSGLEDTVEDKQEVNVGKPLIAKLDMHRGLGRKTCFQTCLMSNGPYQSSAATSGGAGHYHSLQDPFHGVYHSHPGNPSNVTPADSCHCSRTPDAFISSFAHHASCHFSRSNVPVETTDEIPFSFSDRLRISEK

Row | IC50 [1] [nM] | IC50 [2] [nM] | IC50 [3] [nM] | IC50 [4] [nM] | SMILES | IC50 [5] [nM]
1 | 15 | 29 | 26 | 432 | O=C(Nc1cnc(-c2ncco2)c(Cl)c1)c1cnn(-c2cccc3c(=O)[nH]ccc23)c1C(F)(F)F [Cpd 127, N-(5-chloro-6-(oxazol-2-yl)pyridin-3-yl)-1-(1-oxo-1,2-dihydroisoquinolin-5-yl)-5-(trifluoromethyl)-1H-pyrazole-4-carboxamide] | 11200
2 | 50 | 34 | 37 | 2320 | N#Cc1cc(NC(=O)c2cnn(-c3cccc4ocnc34)c2C(F)(F)F)cnc1-n1nccn1 [Cpd 311, 1-(benzo[d]oxazol-4-yl)-N-(5-cyano-6-(2H-1,2,3-triazol-2-yl)pyridin-3-yl)-5-(trifluoromethyl)-1H-pyrazole-4-carboxamide] | 3550
3 | 15 | 17 | 12 | 158 | N#Cc1cc(NC(=O)c2cnn(-c3cncc4c(F)cccc34)c2C(F)(F)F)cnc1-n1nccn1 [Cpd 118, N-(5-cyano-6-(2H-1,2,3-triazol-2-yl)pyridin-3-yl)-1-(8-fluoroisoquinolin-4-yl)-5-(trifluoromethyl)-1H-pyrazole-4-carboxamide] | 832
4 | 13 | 72 | 40 | 193 | N#Cc1cc(NC(=O)c2cnn(-c3cccc4nnsc34)c2C(F)(F)F)cnc1-n1nccn1 [Cpd 119, 1-(benzo[d][1,2,3]thiadiazol-7-yl)-N-(5-cyano-6-(2H-1,2,3-triazol-2-yl)pyridin-3-yl)-5-(trifluoromethyl)-1H-pyrazole-4-carboxamide] | 355
5 | 19 | 93 | 68 | 302 | Nc1ncc(-n2ncc(C(=O)Nc3cnc(-n4nccn4)c(Cl)c3)c2C(F)(F)F)c2ccccc12 [Cpd 155, 1-(1-aminoisoquinolin-4-yl)-N-(5-chloro-6-(2H-1,2,3-triazol-2-yl)pyridin-3-yl)-5-(trifluoromethyl)-1H-pyrazole-4-carboxamide] | 1380
6 | 110 | 191 | 174 | 1020 | O=C(Nc1cncc(C(F)(F)F)c1)c1cnn(-c2cccc3c(=O)[nH]ccc23)c1C(F)(F)F [Cpd 167, 1-(1-oxo-1,2-dihydroisoquinolin-5-yl)-5-(trifluoromethyl)-N-(5-(trifluoromethyl)pyridin-3-yl)-1H-pyrazole-4-carboxamide] | 4570
7 | 10 | 107 | 89 | 284 | N#Cc1cc(NC(=O)c2cnn(-c3cnc(N)c4c(F)cccc34)c2C(F)(F)F)cnc1-n1nccn1 [Cpd 111, 1-(1-amino-8-fluoroisoquinolin-4-yl)-N-(5-cyano-6-(2H-1,2,3-triazol-2-yl)pyridin-3-yl)-5-(trifluoromethyl)-1H-pyrazole-4-carboxamide] | 3310
8 | 36 | 22 | 13 | 866 | Cc1nc(-n2nccn2)c(Cl)cc1NC(=O)c1cnn(-c2cncc3ccccc23)c1C(F)(F)F [Cpd 191, N-(5-chloro-2-methyl-6-(2H-1,2,3-triazol-2-yl)pyridin-3-yl)-1-(isoquinolin-4-yl)-5-(trifluoromethyl)-1H-pyrazole-4-carboxamide] | 912
9 | 21 | 98 | 83 | 1310 | O=C(Nc1cnc(-n2cc(CO)cn2)c(Cl)c1)c1cnn(-c2cccc3ncccc23)c1C(F)(F)F [Cpd 135, N-(5-chloro-6-(4-(hydroxymethyl)-1H-pyrazol-1-yl)pyridin-3-yl)-1-(quinolin-5-yl)-5-(trifluoromethyl)-1H-pyrazole-4-carboxamide] | 3090
10 | 19 | 98 | 95 | 395 | Nc1cnn(-c2ncc(NC(=O)c3cnn(-c4cccc5ncccc45)c3C(F)(F)F)cc2Cl)n1 [Cpd 154, N-(6-(4-amino-2H-1,2,3-triazol-2-yl)-5-chloropyridin-3-yl)-1-(quinolin-5-yl)-5-(trifluoromethyl)-1H-pyrazole-4-carboxamide] | 2240
11 | 69 | 204 | 158 | 504 | O=C(Nc1cc(Cl)c(-n2nccn2)cc1F)c1cnn(-c2cccc3c(=O)[nH]ccc23)c1C(F)(F)F [Cpd 172, N-(5-chloro-2-fluoro-4-(2H-1,2,3-triazol-2-yl)phenyl)-1-(1-oxo-1,2-dihydroisoquinolin-5-yl)-5-(trifluoromethyl)-1H-pyrazole-4-carboxamide] | 4790
12 | 23 | 50 | 36 | 275 | O=C(Nc1cnc(-n2nccn2)c(Br)c1)c1cnn(-c2cccc3ncccc23)c1C(F)(F)F [Cpd 139, N-(5-bromo-6-(2H-1,2,3-triazol-2-yl)pyridin-3-yl)-1-(quinolin-5-yl)-5-(trifluoromethyl)-1H-pyrazole-4-carboxamide] | 1410
13 | 42 | 589 | 427 | 2800 | Nc1cnnn1-c1ncc(NC(=O)c2cnn(-c3cccc4c(=O)[nH]ccc34)c2C(F)(F)F)cc1Cl [Cpd 178, N-(6-(5-amino-1H-1,2,3-triazol-1-yl)-5-chloropyridin-3-yl)-1-(1-oxo-1,2-dihydroisoquinolin-5-yl)-5-(trifluoromethyl)-1H-pyrazole-4-carboxamide] | > 20000
14 | 17 | 115 | 98 | 966 | Cc1nc(-n2nccn2)c(Cl)cc1NC(=O)c1cnn(-c2cccc3c(=O)[nH]ccc23)c1C(F)(F)F [Cpd 112, N-(5-chloro-2-methyl-6-(2H-1,2,3-triazol-2-yl)pyridin-3-yl)-1-(1-oxo-1,2-dihydroisoquinolin-5-yl)-5-(trifluoromethyl)-1H-pyrazole-4-carboxamide] | 6310
15 | 45 | 105 | 89 | 881 | N#Cc1cc(NC(=O)c2cnn(-c3ccc(N)c4ncccc34)c2C(F)(F)F)cnc1-n1nccn1 [Cpd 326, 1-(8-aminoquinolin-5-yl)-N-(5-cyano-6-(2H-1,2,3-triazol-2-yl)pyridin-3-yl)-5-(trifluoromethyl)-1H-pyrazole-4-carboxamide] | 3240
16 | 23 | 1780 | 912 | 1270 | Cn1ccc(-c2ncc(NC(=O)c3cnn(-c4cccc5c(=O)[nH]ccc45)c3C(F)(F)F)cc2Cl)n1 [Cpd 157, N-(5-chloro-6-(1-methyl-1H-pyrazol-3-yl)pyridin-3-yl)-1-(1-oxo-1,2-dihydroisoquinolin-5-yl)-5-(trifluoromethyl)-1H-pyrazole-4-carboxamide] | 7080
17 | 11 | 170 | 79 | 912 | N#Cc1cc(NC(=O)c2cnn(-c3cccc4c(=O)[nH]ccc34)c2C(F)(F)F)cnc1-n1nccn1 [Cpd 113, N-(5-cyano-6-(2H-1,2,3-triazol-2-yl)pyridin-3-yl)-1-(1-oxo-1,2-dihydroisoquinolin-5-yl)-5-(trifluoromethyl)-1H-pyrazole-4-carboxamide] | 13800
18 | 24 | 58 | 50 | 1070 | CC(O)c1ncc(-n2ncc(C(=O)Nc3cnc(-n4nccn4)c(Cl)c3)c2C(F)(F)F)c2ccsc12 (centres unmarked) [Cpd 376, N-(5-chloro-6-(2H-1,2,3-triazol-2-yl)pyridin-3-yl)-1-(7-(1-hydroxyethyl)thieno[2,3-c]pyridin-4-yl)-5-(trifluoromethyl)-1H-pyrazole-4-carboxamide] | 1440
19 | 11 | 34 | 29 | 193 | N#Cc1cc(NC(=O)c2cnn(-c3cccc4ncsc34)c2C(F)(F)F)cnc1-n1nccn1 [Cpd 114, 1-(benzo[d]thiazol-7-yl)-N-(5-cyano-6-(2H-1,2,3-triazol-2-yl)pyridin-3-yl)-5-(trifluoromethyl)-1H-pyrazole-4-carboxamide] | 2690
20 | 32 | 22 | 13 | 1060 | Cc1cc(-n2nccn2)c(C#N)cc1NC(=O)c1cnn(-c2cccc3c(=O)[nH]ccc23)c1C(F)(F)F [Cpd 446, N-(5-cyano-2-methyl-4-(2H-1,2,3-triazol-2-yl)phenyl)-1-(1-oxo-1,2-dihydroisoquinolin-5-yl)-5-(trifluoromethyl)-1H-pyrazole-4-carboxamide] | > 20000
21 | 15 | 1660 |  | 1120 | Cn1c(=O)cc(-n2ncc(C(=O)Nc3cnc(-n4nccn4)c(Cl)c3)c2C(F)(F)F)c2ccccc21 [Cpd 419, N-(5-chloro-6-(2H-1,2,3-triazol-2-yl)pyridin-3-yl)-1-(1-methyl-2-oxo-1,2-dihydroquinolin-4-yl)-5-(trifluoromethyl)-1H-pyrazole-4-carboxamide] | 5750
